Measurements reported in patent US12139508B2, “Steroid derivative regulators, method for preparing the same, and uses thereof” (JIANGSU HANSOH PHARMACEUTICAL GROUP CO., LTD., priority 2018, dated 2024).

Key:
GABA-A receptor = test: 35S-TBPS binding assay (GABAA receptor binding ability test); set-up: species or system Sprague-Dawley rat; details: rat cerebral cortex cell membrane, 5 μM GABA, 2 nM 35S-TBPS; read-out: 35S-TBPS bindng test: IC50 on inhibiting the TBPS binding activity
Procedure, shortened: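 Rat (male Sprague-Dawley) cortical membranes in PBS were preincubated 5 min at 25° C with compound (from 1 μM, 3-fold, 8 points, 1% DMSO), then 5 μM GABA 5 min, then 2 nM ^35S-TBPS for 20 h at 4° C. Filter-bound counts gave % inhibition against DMSO and 10 μM P026-2 controls; IC50 by 4-parameter fit.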

forced-swimming mice = test: In vivo pharmacodynamic test in the forced swimming model in mice; details: ICR mice; for Mean (immobility, %): 100*floating time/240 s; for Immobility time during the latter four minutes compared with that of the model group: forced swimming
Description: The antidepressant effect of the compound was evaluated by the forced swimming model in mice.
Male ICR mice (25-35 g) were adapted in the test environment for 3 days before the forced swimming test.
According to the test design, the mice were randomly grouped on the day before the test according to body weight, with 12 mice in each group. Before the test, the compounds of each example were administered intragastrically according to the Tmax thereof in the brain in mice pharmacokinetic test as follows: • 1) Model group (0.5% CMC-Na-1% Tween 80 solution, p.o., 10 mL/kg); • 2) Compounds of Example 2, Example 3, Example 5, Example 6, Example 9, Examples 59-63, Examples 71-73, Example 103, Example 135, Example 137, Example 145 and Example 146 (10 mg/kg, p.o., 10 mL/kg); Example 13 and Example 74 (5 mg/kg, p.o., 5 mL/kg).
When being administered, the compounds of each example were suspended in 0.5% CMC-Na+1% Tween 80 solution to the desired concentration.
0.5-1 hour after administration, ICR mice were placed in a forced swimming device (transparent glass drum (water depth 18 cm, water temperature 25-26° C.), one mouse per tank) and forced to swim for 6 minutes. The forced swimming device recorded the floating time of the ICR mice during the entire 6 minutes, and the data of the latter four minutes were used for data analysis. The mice were taken out immediately after the swimming test, wiped dry and put back in their original cages.
Note: The criterion for determining the immobility time is that the mouse stops struggling in water and floats, and there are only slight limb movements to keep the head floating on the water.
3.4 Data Analysis Floating time percentage=100*floating time/240 s.

SMILES	IC50 (GABA-A receptor) [nM]	Mean (immobility, %) (forced-swimming mice; dose 10 mpk p.o.) [%]	Mean (immobility, s) (forced-swimming mice; dose 10 mpk p.o., latter four minutes of 6 min swim) [s]	Immobility time during the latter four minutes compared with that of the model group (forced-swimming mice)	Mean (immobility, %) (forced-swimming mice; dose 5 mpk p.o.) [%]
C[C@@]1(O)CC[C@H]2[C@H](CC[C@@H]3[C@@H]2CC[C@@]2(C)[C@H]3[C@@H]3C[C@@H]3[C@@H]2C(=O)Cn2ccc(C#N)n2)C1 [Example 3, 1-(2-((2R,4aS,4bR,6aS,7S,7aS,8aR,8bR,8cR,10aR)-2-hydroxy-2,6a-dimethyloctadecahydrocyclopropa[4,5]cyclopenta[1,2-a]phenanthren-7-yl)-2-oxoethyl)-1H-pyrazole-3-carbonitrile]	14.9	28.50	68.39	significantly different	–
C[C@@H]1C[C@H](C(=O)Cn2ccc(C#N)n2)[C@@]2(C)CC[C@H]3[C@@H](CC[C@@H]4C[C@](C)(O)CC[C@@H]43)[C@H]12 [Example 60, 1-(2-((3R,5R,8R,9R,10S,13S,14S,15R,17S)-3-Hydroxy-3,13,15-trimethylhexadecahydro-1H-cyclopenta[a]phenanthren-17-yl)-2-oxoethyl)-1H-pyrazole-3-carbonitrile]	8.2	35.30	–	significantly different	–
C[C@@]1(O)CC[C@H]2[C@H](CC[C@@H]3[C@@H]2CC[C@@]2(C)[C@H]3[C@@H]3C[C@@H]3[C@@H]2C(=O)Cn2cc(C(F)(F)F)cn2)C1 [Example 5, 1-((2R,4aS,4bR,6aS,7S,7aS,8aR,8bR,8cR,10aR)-2-Hydroxy-2,6a-dimethyloctadecahydrocyclopropa[4,5]cyclopenta[1,2-a]phenanthren-7-yl)-2-(4-(trifluoromethyl)-1H-pyrazol-1-yl)ethan-1-one]	13.5	59.93	–	–	–
C[C@@]1(O)CC[C@H]2[C@H](CC[C@@H]3[C@@H]2CC[C@@]2(C)[C@H]3[C@@H]3C[C@@H]3[C@@H]2C(=O)Cn2cc(C#N)cn2)C1 [Example 2, 1-(2-((2R,4aS,4bR,6aS,7S,7aS,8aR,8bR,8cR,10aR)-2-hydroxy-2,6a-dimethyloctadecahydrocyclopropa[4,5]cyclopenta[1,2-a]phenanthren-7-yl)-2-oxoethyl)-1H-pyrazole-4-carbonitrile]	24.3	54.26	–	–	–
C[C@@]1(O)CC[C@H]2[C@H](CC[C@@H]3[C@@H]2CC[C@@]2(C)[C@H]3[C@H](C3CC3)C[C@@H]2C(=O)Cn2ncnn2)C1 [Example 146, 1-((3R,5R,8R,9R,10S,13S,14S,15S,17S)-15-Cyclopropyl-3-hydroxy-3,13-dimethylhexadecahydro-1H-cyclopenta[a]phenanthren-17-yl)-2-(2H-tetrazol-2-yl)ethan-1-one]	21.4	–	–	significantly different	33.54
C[C@@]1(O)CC[C@H]2[C@H](CC[C@@H]3[C@@H]2CC[C@@]2(C)[C@H]3[C@H](C3CC3)C[C@@H]2C(=O)Cn2ccnn2)C1 [Example 145, 1-((3R,5R,8R,9R,10S,13S,14S,15S,17S)-15-Cyclopropyl-3-hydroxy-3,13-dimethylhexadecahydro-1H-cyclopenta[a]phenanthren-17-yl)-2-(1H-1,2,3-triazol-1-yl)ethan-1-one]	16.9	–	–	–	30.72
CC[C@@H]1C[C@H](C(=O)Cn2ccc(C#N)n2)[C@@]2(C)CC[C@H]3[C@@H](CC[C@@H]4C[C@](C)(O)CC[C@@H]43)[C@H]12 [Example 137, 1-(2-((3R,5R,8R,9R,10S,13S,14S,15R,17S)-15-Ethyl-3-hydroxy-3,13-dimethylhexadecahydro-1H-cyclopenta[a]phenanthren-17-yl)-2-oxoethyl)-1H-pyrazole-3-carbonitrile]	16.2	36.92	–	significantly different	–
C[C@@]1(O)CC[C@H]2[C@H](CC[C@@H]3[C@@H]2CC[C@]2(C)C(C(=O)Cn4cc(C#N)cn4)C[C@@H](C4CC4)[C@@H]32)C1 (stereo partly drawn) [Example 71, 1-(2-((3R,5R,8R,9R,10S,13S,14S,15S)-15-Cyclopropyl-3-hydroxy-3,13-dimethylhexadecahydro-1H-cyclopenta[a]phenanthren-17-yl)-2-oxoethyl)-1H-pyrazole-4-carbonitrile]	7.5	55.92	–	–	–
C[C@@H]1C[C@H](C(=O)Cn2cc(C#N)cn2)[C@@]2(C)CC[C@H]3[C@@H](CC[C@@H]4C[C@](C)(O)CC[C@@H]43)[C@H]12 [Example 13, 1-(2-((3R,5R,8R,9R,10S,13S,14S,15R)-3-Hydroxy-3,13,15-trimethylhexadecahydro-1H-cyclopenta[a]phenanthren-17-yl)-2-oxoethyl)-1H-pyrazole-4-carbonitrile]	4.6	–	–	–	57.60
